Where a SMILES comes first, the peptide text is derived from it.
Key:
MDA-MB-231 cells = assay: Western blot analysis; assay type: cell-based, human; settings: 24 h, BN3, BN4 7.5 and 5 pM, BNS 7.5 pM
From the text: After washing in ice-cold PBS, proteins were extracted from cells with lysis buffer containing 100 mmol/L Tris-HCl, pH 8.0, 150 mmol/L NaCl, 1% sodium dodecyl sulfate, 10% glycerol, 1% Triton X, 5 mmol/L ethylenediaminetetraacetic acid, 1 mmol/L phenyl methyl sulfonyl fluoride, 10 mmol/L sodium fluoride, 1 mmol/L sodium orthovanadate, 1 mmol/L-glycerophosphate, and protease inhibitor cocktail tablets (Roche, Switzerland). Total proteins from cell were also extracted by using standard procedure. Protein concentrations were determined by Bradford reagent (BioRad, USA). Extracted proteins were separated by sodium dodecyl sulphate polyacrylamide gel electrophoresis and transferred to polyvinylidene fluoride (PVDF) membranes. Membranes blocking were done by 5% nonfat milk in Tris-buffered saline containing 0.1% polysorbate-20 and incubated with primary antibodies GRPR (Abcam, USA), VEGF, PCNA, Phospho-p38, and HIF-1α (Santa Cruz Biotechnology) for overnight at 4 °C. β-actin antibodies (Millipore) were used to confirm equal protein loading. Detection of primary antibodies was done by alkaline phosphatase conjugated secondary antibodies (1:5000 dilutions) and the detection was done by colorimetry using NBT-BCIP as substrate (Sigma-Aldrich). Detection of GRPR primary antibody was done by horseradish peroxidase conjugated secondary antibodies. The level of β-actin was used as a loading control and was not altered under any of the condition used.

MDA-MB-231 tumor = assay: Angiogenic and proliferative markers in tumor (IHC); assay type: in vivo, mouse; settings: tumor-bearing mice treated i.v. every day for 2 weeks
Procedure: Tumor-bearing mice were intravenously treated with BN4 peptide at every day for 2 weeks as BN4 has shown the highest affinity and stability to GRP with compare to other analogs. Mice were sacrificed and tumor tissue sections were used for immunohistochemical (IHC) analyses. IHC was performed by the aforementioned methods with the primary antibodies such as anti-CD31 and anti-Ki67 (Abcam, Cambridge, Massachusetts, USA) to determine the expression of angiogenic and proliferative markers in the tumor.

GRPR = biological target: T1, GRPR (Homo sapiens, UniProt P30550); assay: In vitro receptor binding assay, competition with 99mTc-BNS; settings: unlabeled analogs, MDA-MB-231 cells/membranes, radioligand 99mTc-BNS, 1 h, 37 °C
T1 construct: endogenous in cells; host or cells: MDA-MB-231 human breast cancer cells (from NCCS, Pune)
T1 sequence (P30550 whole entry): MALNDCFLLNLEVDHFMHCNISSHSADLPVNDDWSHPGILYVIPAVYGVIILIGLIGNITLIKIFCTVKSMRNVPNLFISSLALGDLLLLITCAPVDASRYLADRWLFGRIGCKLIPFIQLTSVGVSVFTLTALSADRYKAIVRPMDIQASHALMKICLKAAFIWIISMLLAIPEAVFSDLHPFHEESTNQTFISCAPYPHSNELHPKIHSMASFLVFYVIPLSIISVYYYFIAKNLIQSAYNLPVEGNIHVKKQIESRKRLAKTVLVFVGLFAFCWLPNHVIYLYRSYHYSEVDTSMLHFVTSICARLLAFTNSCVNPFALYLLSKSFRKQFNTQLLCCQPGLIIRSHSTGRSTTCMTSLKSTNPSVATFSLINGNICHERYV
Procedure: One day prior to the assay, cells at the confluence were placed in 12-well plates. […] Inhibitory assays were done on GRPR-expressing MDA-MB-231 human breast cancer cells using the standard procedure with modifications. […] After 1-h incubation, cells were washed twice with cold PBS. Receptor bound radioactivity was recovered by solubilizing the cells with 400 μL 1 N NaOH at 37 °C. Binding activities were evaluated in the gamma counter. IC50 (the best-fit 50% inhibitory concentration) values were determined using nonlinear regression.
It may be mentioned that non-radioactive Re complex can be used in place of its unlabeled ligand to determine the binding affinity after complexation reaction. This is being proposed to use the non-radioactive Re complex in place of its unlabeled ligand to determine the binding affinity after complexation in future studies.

CCCC[C@H](NC(=O)[C@@H](Cc1ccc(O)cc1)NC(=O)[C@H](Cc1c[nH]cn1)NC(=O)[C@@H]1CCCN1C(=O)[C@@H](NC(=O)[C@H](C)NC(=O)[C@H](Cc1c[nH]c2ccccc12)NC(=O)[C@H](CCC(N)=O)NC(=O)CCCNC(=O)CN1CCNCCNCCNCC1)C(C)C)C(N)=O [BN4, DOMA-GABA-[Pro^5-D-Tyr^13Nle^14]-BN(7-14)-NH2] (HELM PEPTIDE1{[O=C(CN1CCNCCNCCNCC1)[*:2]].[O=C(CCCN[*:1])[*:2]].Q.W.A.V.P.H.[dY].[Nle].[am]}$$$$V2.0)
level of GRPR (Western blot) (MDA-MB-231 cells): significantly increased level of GRPR
expression of CD31 and Ki67 in tumor sections (IHC) (MDA-MB-231 tumor): enhanced expression of CD31, Ki67
IC50 (GRPR): 3.15 nM

Source: publication PMC6423188, “HYNIC and DOMA conjugated radiolabeled bombesin analogs as receptor-targeted probes for scintigraphic detection of breast tumor” (EJNMMI Research, 2019)
